{
  "source": "patent US20230399341A1",
  "about": "“7-PHENYL SUBSTITUTED 2-AMINOQUINAZOLINE INHIBITORS OF HPK1” (MERCK SHARP & DOHME LLC, priority 2020, published 2023)",
  "target": "T1, Human HPK1, catalytic domain (Homo sapiens, UniProt Q92918)",
  "T1 sequence (Q92918 1-346)": "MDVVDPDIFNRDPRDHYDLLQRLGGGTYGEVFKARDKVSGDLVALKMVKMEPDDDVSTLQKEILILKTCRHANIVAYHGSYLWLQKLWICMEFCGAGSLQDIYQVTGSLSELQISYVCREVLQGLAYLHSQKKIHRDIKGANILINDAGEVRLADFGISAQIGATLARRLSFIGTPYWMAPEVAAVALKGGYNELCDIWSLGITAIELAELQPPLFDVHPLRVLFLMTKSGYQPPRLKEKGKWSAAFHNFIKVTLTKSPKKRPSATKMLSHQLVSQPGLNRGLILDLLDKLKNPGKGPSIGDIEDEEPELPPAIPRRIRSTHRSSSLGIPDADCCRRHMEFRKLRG",
  "test": "HPK1-SLP76 TR-FRET Assay",
  "type": "biochemical",
  "conditions": "75 pM HPK1, ATP 10 uM, SLP76 10 nM, 30 min pre-incubation, 60 min reaction",
  "data": [
    {"smiles": "COc1cc2c(cc1Nc1ncc3ccc(-c4ccc5c(c4)CCO5)cc3n1)CNCC2", "note": "[Compound 1-72, 7-(2,3-dihydro-1-benzofuran-5-yl)-N-(6-methoxy-1,2,3,4-tetrahydroisoquinolin-7-yl)quinazolin-2-amine]", "values": [
      {"measurement": "IC50", "result": 53.4, "unit": "nM"}
    ]},
    {"smiles": "Cc1c(-c2c(F)c(N)c3cnc(Nc4ccc(CS(C)(=O)=O)cc4)nc3c2Cl)cnc2c1NCC(C)(C)O2", "note": "[Compound 2-161, (+ and −)-8-chloro-6-fluoro-N~2~-{4-[(methylsulfonyl)methyl]phenyl}-7-(3,3,8-trimethyl-2,3-dihydro-1H-pyrido[2,3-b][1,4]oxazin-7-yl)quinazoline-2,5-diamine]", "values": [
      {"measurement": "IC50", "result": 0.252, "unit": "nM"}
    ]},
    {"smiles": "Cc1c(-c2cc3nc(Nc4ccc5c(c4)CNCCC5)ncc3c(N)c2F)cnc2c1NCCO2", "note": "[Compound 2-120, 6-fluoro-7-(8-methyl-2,3-dihydro-1H-pyrido[2,3-b][1,4]oxazin-7-yl)-N~2~- (2,3,4,5-tetrahydro-1H-2-benzazepin-8-yl)quinazoline-2,5-diamine]", "values": [
      {"measurement": "IC50", "result": 0.0066, "unit": "nM"}
    ]},
    {"smiles": "CCS(=O)(=O)Cc1ccc(Nc2ncc3c(N)c(F)c(-c4cnc5c(c4C)NCCO5)c(Cl)c3n2)cc1", "note": "[Compound 2-140, 8-chloro-N~2~-{4-[(ethylsulfonyl)methyl]phenyl}-6-fluoro-7-(8-methyl-2,3-dihydro-1H-pyrido[2,3-b][1,4]oxazin-7-yl)quinazoline-2,5-diamine]", "values": [
      {"measurement": "IC50", "result": 0.121, "unit": "nM"}
    ]},
    {"smiles": "COc1cc2c(cc1Nc1ncc3c(N)c(F)c(-c4cnc5c(c4C)NCCO5)c(Cl)c3n1)CN(C)CC21CC1", "note": "[Compound 2-169, 8-chloro-6-fluoro-N~2~- (6′-methoxy-2′-methyl-2′,3′-dihydro-1′H-spiro[cyclopropane-1,4′-isoquinolin]-7′-yl)-7-(8-methyl-2,3-dihydro-1H-pyrido[2,3-b][1,4]oxazin-7-yl)quinazoline-2,5-diamine]", "values": [
      {"measurement": "IC50", "result": 4.97, "unit": "nM"}
    ]},
    {"smiles": "COc1cc2c(cc1Nc1ncc3ccc(Nc4cccc(N5CCN(C)C5=O)c4)cc3n1)CN(C)CC2", "note": "[Compound 3-43, 1-[3-({2-[(6-methoxy-2-methyl-1,2,3,4-tetrahydroisoquinolin-7-yl)amino]quinazolin-7-yl}-amino)phenyl]-3-methylimidaz-olidin-2-one]", "values": [
      {"measurement": "IC50", "result": 68.5, "unit": "nM"}
    ]},
    {"smiles": "CNC(=O)c1ccc(-c2ccc3cnc(Nc4cc5c(cc4OC)CCNC5)nc3c2)cn1", "note": "[Compound 1-28, 5-{2-[(6-methoxy-1,2,3,4-tetrahydroisoquinolin-7-yl)amino]quinazolin-7-yl}-N-methylpyridine-2-carboxamide]", "values": [
      {"measurement": "IC50", "result": 198, "unit": "nM"}
    ]},
    {"smiles": "Cc1ncccc1Nc1ncc2c(N)c(F)c(-c3cnc4c(c3C)NCCO4)cc2n1", "note": "[Compound 2-32, 6-fluoro-7-(8-methyl-2,3-dihydro-1H-pyrido[2,3-b][1,4]oxazin-7-yl)-N~2~- (2-methylpyridin-3-yl)quinazoline-2,5-diamine]", "values": [
      {"measurement": "IC50", "result": 0.669, "unit": "nM"}
    ]},
    {"smiles": "CC(=O)N1CCCC1c1ccc(Nc2ncc3c(N)c(F)c(-c4cnc5c(c4C)NCCO5)cc3n2)cc1", "note": "(single isomer, unassigned) [Compound 2-29, (R or S)-1-[2-(4-{[5-amino-6-fluoro-7-(8-methyl-2,3-dihydro-1H-pyrido[2,3-b][1,4]oxazin-7-yl)quinazolin-2-yl]amino}phenyl)pyrrolidin-1-yl]ethan-1-one]", "values": [
      {"measurement": "IC50", "result": 0.273, "unit": "nM"}
    ]},
    {"smiles": "COc1cc2c(cc1Nc1ncc3c(N)c(F)c(-c4cnc5ncsc5c4)cc3n1)CN(C)CC2", "note": "[Compound 2-47, 6-fluoro-N~2~-(6-methoxy-2-methyl-1,2,3,4-tetrahydroisoquinolin-7-yl)-7-([1,3]thiazolo[4,5-b]pyridin-6-yl)quinazoline-2,5-diamine]", "values": [
      {"measurement": "IC50", "result": 24.6, "unit": "nM"}
    ]},
    {"smiles": "COc1cc2c(cc1Nc1ncc3ccc(-c4ccc5c(c4)C(=O)N(CC4CC4)C5)cc3n1)CNCC2", "note": "[Compound 1-68, 2-(cyclopropylmethyl)-6-{2-[(6-methoxy-1,2,3,4-tetrahydroisoquinolin-7-yl)amino]quinazolin-7-yl}-2,3-dihydro-1H-isoindol-1-one]", "values": [
      {"measurement": "IC50", "result": 161, "unit": "nM"}
    ]},
    {"smiles": "COc1nc(C)ccc1Nc1ncc2c(N)c(F)c(-c3cnc4c(c3C)NCCO4)cc2n1", "note": "[Compound 2-66, 6-fluoro-N~2~-(2-methoxy-6-methylpyridin-3-yl)-7-(8-methyl-2,3-dihydro-1H-pyrido[2,3-b][1,4]oxazin-7-yl)quinazoline-2,5-diamine]", "values": [
      {"measurement": "IC50", "result": 0.722, "unit": "nM"}
    ]},
    {"smiles": "Cc1c(-c2cc3nc(Nc4ccc5c(c4)CN(C(C)C)CC5)ncc3c(N)c2F)cnc2c1NCC(C)O2", "note": "(single isomer, unassigned) [Compound 2-145, 7-(3,8-dimethyl-2,3-dihydro-1H-pyrido[2,3-b][1,4]oxazin-7-yl)-6-fluoro-N2-(2-isopropyl-1,2,3,4-tetrahydroisoquinolin-7-yl)quinazoline-2,5-diamine]", "values": [
      {"measurement": "IC50", "result": 0.051, "unit": "nM"}
    ]},
    {"smiles": "CNC(=O)C(C)c1ccc(Nc2ncc3cc(F)c(-c4cnc5c(c4C)NCCO5)cc3n2)cc1", "note": "(single isomer, unassigned) [Compound 1-117, (R or S)-2-(4-{[6-fluoro-7-(8-methyl-2,3-dihydro-1H-pyrido[2,3-b][1,4]oxazin-7-yl)quinazolin-2-yl]amino}phenyl)-N-methylpropanamide]", "values": [
      {"measurement": "IC50", "result": 0.0705, "unit": "nM"}
    ]},
    {"smiles": "Cc1c(-c2cc3nc(Nc4ccc5c(c4)CN(C)CC5)ncc3c(N)c2F)cnc2c1NCCO2", "note": "[Compound 2-70, 6-fluoro-7-(8-methyl-2,3-dihydro-1H-pyrido[2,3-b][1,4]oxazin-7-yl)-N˜2˜-(2-methyl-1,2,3,4-tetrahydroisoquinolin-7-yl)quinazoline-2,5-diamine]", "values": [
      {"measurement": "IC50", "result": 0.0508, "unit": "nM"}
    ]},
    {"smiles": "Cc1c(-c2cc3nc(Nc4ccc5c(c4)CC(C)(C)N(C)C5)ncc3c(N)c2F)cnc2c1NCCO2", "note": "(single isomer, unassigned) [Compound 2-126, 6-fluoro-7-(8-methyl-2,3-dihydro-1H-pyrido[2,3-b][1,4]oxazin-7-yl)-N2-(2,3,3-trimethyl-1,2,3,4-tetrahydroisoquinolin-6-yl)quinazoline-2,5-diamine]", "values": [
      {"measurement": "IC50", "result": 0.0898, "unit": "nM"}
    ]},
    {"smiles": "COc1cc2c(cc1Nc1ncc3ccc(-c4cccc(CN5CCCCC5)c4)cc3n1)CNCC2", "note": "[Compound 1-69, N-(6-methoxy-1,2,3,4-tetrahydroisoquinolin-7-yl)-7-{3-[(piperidin-1-yl)methyl]phenyl}quinazolin-2-amine]", "values": [
      {"measurement": "IC50", "result": 215, "unit": "nM"}
    ]},
    {"smiles": "COc1cc2c(cc1Nc1ncc3ccc(-c4ccc(S(=O)(=O)N5CCCC5)cc4)cc3n1)CNCC2", "note": "[Compound 1-81, N-(6-methoxy-1,2,3,4-tetrahydroisoquinolin-7-yl)-7-{4-[(pyrrolidin-1-yl)sulfonyl]phenyl}quinazo-lin-2-amine]", "values": [
      {"measurement": "IC50", "result": 192, "unit": "nM"}
    ]},
    {"smiles": "COc1cc2c(cc1Nc1ncc3ccc(Nc4cccc(CO)n4)cc3n1)CN(C)CC2", "note": "[Compound 3-29, [6-({2-[(6-methoxy-2-methyl-1,2,3,4-tetrahydroisoquinolin-7-yl)amino]quinazolin-7-yl}-amino)pyridin-2-yl]methanol]", "values": [
      {"measurement": "IC50", "result": 20.5, "unit": "nM"}
    ]},
    {"smiles": "COc1cc2c(cc1Nc1ncc3ccc(-c4ccc(S(N)(=O)=O)cc4C)cc3n1)CNCC2", "note": "[Compound 1-32, 4-{2-[(6-methoxy-1,2,3,4-tetrahydroisoquinolin-7-yl)amino]quinazolin-7-yl}-3-methylbenzene-1-sulfonamide]", "values": [
      {"measurement": "IC50", "result": 108, "unit": "nM"}
    ]},
    {"smiles": "COc1cc2c(cc1Nc1ncc3ccc(-c4cncc(C)c4)cc3n1)CNCC2", "note": "[Compound 1-41, N-(6-methoxy-1,2,3,4-tetrahydroisoquinolin-7-yl)-7-(5-methylpyridin-3-yl)quinazolin-2-amine]", "values": [
      {"measurement": "IC50", "result": 9.67, "unit": "nM"}
    ]}
  ]
}
